The source of these data is ChEMBL document CHEMBL5247574, “Recent Progress on Bile Acid Receptor Modulators for Treatment of Metabolic Diseases” (J Med Chem, 2016).

SMILES strings stand for the structures.

Series [1] has as its target T1, G-protein coupled bile acid receptor 1 (Rattus norvegicus) (UniProt Q80T02).
T1 sequence (whole entry): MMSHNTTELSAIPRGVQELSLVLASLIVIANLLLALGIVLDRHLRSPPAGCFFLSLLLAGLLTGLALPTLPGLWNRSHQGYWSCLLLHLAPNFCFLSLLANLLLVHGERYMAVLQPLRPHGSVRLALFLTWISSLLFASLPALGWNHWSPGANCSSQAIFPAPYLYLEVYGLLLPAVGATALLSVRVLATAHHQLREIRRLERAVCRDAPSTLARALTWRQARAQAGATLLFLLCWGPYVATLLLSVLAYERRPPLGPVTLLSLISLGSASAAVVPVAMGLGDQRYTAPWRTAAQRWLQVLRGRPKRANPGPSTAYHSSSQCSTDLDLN
In words: Agonist activity at TGR5 in rat Primary intestinal cell assessed as stimulation of GLP-1 secretion incubated for 2 hrs by ELISA analysis relative to control. It is filed as cell-based. To be noted: filed as agonist.

The target in series [2] is T2, G-protein coupled bile acid receptor 1 (Homo sapiens, UniProt Q8TDU6).
T2 sequence (Q8TDU6 whole entry): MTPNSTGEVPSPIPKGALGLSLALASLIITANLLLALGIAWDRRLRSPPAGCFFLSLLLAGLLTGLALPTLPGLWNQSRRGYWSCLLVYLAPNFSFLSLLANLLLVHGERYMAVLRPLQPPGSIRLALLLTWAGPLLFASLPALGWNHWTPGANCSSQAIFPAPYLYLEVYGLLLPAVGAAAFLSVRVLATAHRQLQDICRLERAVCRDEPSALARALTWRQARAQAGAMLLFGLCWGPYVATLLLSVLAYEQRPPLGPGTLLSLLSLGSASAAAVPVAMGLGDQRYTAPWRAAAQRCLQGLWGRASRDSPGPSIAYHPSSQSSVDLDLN
In words: Agonist activity at TGR5 in human T-lymphocyte cells assessed as increase in cAMP production. It is filed as cell-based.

In series [3] the target is T2, G-protein coupled bile acid receptor 1. Description: Agonist activity at TGR5 in human HEK293 cells incubated for 30 mins. It is filed as cell-based.
Series [4] is described as follows: Toxicity in DIO mouse assessed as reduction in total cholesterol level at 30 mg/kg per day administered for 4 weeks. It is filed as organism-based. Further details: scale not given: the % may be the effect or the level left. To be noted: in vivo, 672 h.
Series [5] deals with T3, Bile acid receptor (Homo sapiens, UniProt Q96RI1).
T3 sequence (Q96RI1 whole entry): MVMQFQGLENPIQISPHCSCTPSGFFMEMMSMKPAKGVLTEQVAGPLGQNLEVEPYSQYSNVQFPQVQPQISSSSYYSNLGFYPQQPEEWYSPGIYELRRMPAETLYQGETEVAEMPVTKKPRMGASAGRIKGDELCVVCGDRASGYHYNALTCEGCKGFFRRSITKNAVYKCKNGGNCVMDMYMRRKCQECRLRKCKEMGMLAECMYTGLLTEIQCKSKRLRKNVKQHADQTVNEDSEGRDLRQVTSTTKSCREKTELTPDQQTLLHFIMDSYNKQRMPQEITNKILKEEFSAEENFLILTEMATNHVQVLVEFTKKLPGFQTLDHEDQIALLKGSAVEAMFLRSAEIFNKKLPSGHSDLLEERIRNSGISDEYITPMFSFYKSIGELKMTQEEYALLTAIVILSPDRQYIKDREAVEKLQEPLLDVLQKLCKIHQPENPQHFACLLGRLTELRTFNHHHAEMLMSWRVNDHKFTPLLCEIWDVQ
Description: Agonist activity at GAL4-fused N-terminal GST tagged human FXR LBD expressed in human HEK293 cells by one hybrid reporter assay. It is filed as cell-based.

Series [6] can be described thus: Toxicity in DIO mouse assessed as plasma triglycerides at 30 mg/kg per day administered for 4 weeks. It is filed as organism-based. To be noted: in vivo, 672 h.
Series [7] has as its target T4, G-protein coupled bile acid receptor 1 (Mus musculus) (UniProt Q80SS6).
T4 sequence (whole entry): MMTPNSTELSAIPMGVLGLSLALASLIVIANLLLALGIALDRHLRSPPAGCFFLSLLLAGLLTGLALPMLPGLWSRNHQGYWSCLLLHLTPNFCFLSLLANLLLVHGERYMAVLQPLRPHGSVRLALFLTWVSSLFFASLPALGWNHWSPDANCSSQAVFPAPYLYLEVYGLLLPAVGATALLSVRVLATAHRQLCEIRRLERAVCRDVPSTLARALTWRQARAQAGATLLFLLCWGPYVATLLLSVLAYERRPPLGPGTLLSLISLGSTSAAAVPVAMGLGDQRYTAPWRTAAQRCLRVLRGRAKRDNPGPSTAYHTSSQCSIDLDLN
In words: In vivo agonist activity at TGR5 in mouse assessed as reduction in blood glucose level at 30 mg/kg, po relative to control. Also on record: scale not given: the % may be the effect or the level left. It is filed as functional, organism-based.

For series [8], the target named is T2, G-protein coupled bile acid receptor 1. Description: Agonist activity at TGR5 in human HEK293 cells assessed as increase in cAMP production. It is filed as cell-based.
Series [9] deals with T4, G-protein coupled bile acid receptor 1 (Mus musculus). In words: In vivo agonist activity at TGR5 in mouse assessed as increase in insulin level at 30 mg/kg, po relative to control.
Series [10] shares this target. In words: In vivo agonist activity at TGR5 in mouse assessed as increase in GLP-1 secretion level at 30 mg/kg, po relative to control.
Series [11] concerns the target T3, Bile acid receptor. Description: Agonist activity at FXR (unknown origin) by FRET assay.
A short description of series [12]: Permeability of compound by PAMPA assay. It is filed as ADME.
Series [13] can be described thus: In vivo agonist activity at TGR5 in streptozotocin-induced diabetic hamster model assessed as increase in oxygen consumption at 20 mg/kg, po bid administered for 2 weeks by oral glucose tolerance test relative to control. It is filed as functional, Cricetulus griseus.
A short description of series [14]: In vivo agonist activity at TGR5 in streptozotocin-induced diabetic hamster model assessed as reduction in glucose excursion at 38 mg/kg, po by oral glucose tolerance test relative to control. Also on record: scale not given: the % may be the effect or the level left. It is filed as functional, Cricetulus griseus.
Series [15] in a line: In vivo agonist activity at TGR5 in streptozotocin-induced diabetic hamster model assessed as increase in HDL level at 20 mg/kg, po bid administered for 2 weeks by oral glucose tolerance test relative to control. It is filed as functional, Cricetulus griseus.
Series [16] can be described thus: In vivo agonist activity at TGR5 in streptozotocin-induced diabetic hamster model assessed as decrease in plasma triglyceride at 20 mg/kg, po bid administered for 2 weeks by oral glucose tolerance test relative to control. It is filed as functional, Cricetulus griseus. Further details: scale not given: the % may be the effect or the level left.
Series [17] is described as follows: In vivo agonist activity at TGR5 in streptozotocin-induced diabetic hamster model assessed as increase in insulin secretion at 20 mg/kg, po bid administered for 2 weeks by oral glucose tolerance test relative to control. It is filed as functional, Cricetulus griseus.
Series [18] is described as follows: In vivo agonist activity at TGR5 in streptozotocin-induced diabetic hamster model assessed as reduction in body weight at 20 mg/kg, po bid administered for 2 weeks by oral glucose tolerance test relative to control. It is filed as functional, Cricetulus griseus. Also on record: scale not given: the % may be the effect or the level left.
In series [19] the target is T5, G-protein coupled bile acid receptor 1 (Homo sapiens) (UniProt Q8TDU6).
T5 sequence (whole entry): T2 sequence (Q8TDU6 whole entry)
In words: Agonist activity at human TGR5 transfected in human NCI-H716 cells assessed as fold increase in GLP-1 secretion. It is filed as cell-based. To be noted: filed as agonist.

A short description of series [20]: In vivo agonist activity at TGR5 in streptozotocin-induced diabetic hamster model assessed as decrease in LDL level at 20 mg/kg, po bid administered for 2 weeks by oral glucose tolerance test relative to control. Further details: scale not given: the % may be the effect or the level left. Conditions: Cricetulus griseus.
The nature of series [21]: In vivo agonist activity at TGR5 in streptozotocin-induced diabetic hamster model assessed as decrease in non-HDL level at 20 mg/kg, po bid administered for 2 weeks by oral glucose tolerance test relative to control. Also on record: scale not given: the % may be the effect or the level left. To be noted: Cricetulus griseus.
The nature of series [22]: In vivo agonist activity at TGR5 in streptozotocin-induced diabetic hamster model assessed as increase in HDL/LDL ratio at 20 mg/kg, po bid administered for 2 weeks by oral glucose tolerance test relative to control.
The target in series [23] is T3, Bile acid receptor. Description: Antagonist activity at FXR in human HepG2 cells incubated for 24 hrs by dual luciferase reporter assay. It is filed as cell-based.
The nature of series [24]: Binding affinity to FXR alpha LBD (unknown origin). Further details: species or system Homo sapiens.
Series [25] concerns the target T3, Bile acid receptor. Description: Agonist activity at human FXR expressed in Escherichia coli BL21 (DE3) assessed as effect on europium labeled SRC-1 peptide recruitment by HTRF assay.
The target in series [26] is T3, Bile acid receptor. In words: Antagonist activity at FXR (unknown origin) by HTFR assay.
Series [27] addresses T3, Bile acid receptor. In words: Antagonist activity at FXR in human HepG2 cells. It is filed as cell-based.

For the molecule `O=C1COc2nccc(-c3ccccc3F)c2CN1Cc1cc(C(F)(F)F)cc(C(F)(F)F)c1`, in series [1], the Activity was 360%.
With `CS(=O)(=O)c1ccc(CC2CCC(c3c(C(=O)N4CCC(c5ccc(F)cc5)C4)cnn3-c3ccc(F)cc3)CC2)cc1` (stereo not drawn), the EC50 in series [2] was 0.007 µM.
Molecule `COc1ccc(Cc2nnc(SCc3c(F)cccc3Cl)n2-c2ccc(F)cc2F)cc1OC` gave an EC50 in [3] of under 0.1 µM.
On to `O=C(O)c1ccc(C2CC2c2ccc(OCc3c(-c4c(Cl)cccc4Cl)noc3C3CC3)cc2Cl)cc1` (stereo not drawn), for which the Activity in [4] worked out at 70%; in series [6], 50%. Further, at Bile acid receptor [5], the EC50 was 0.01 µM.
`O=c1c2ccccc2nc(-c2ccc(F)cc2)n1NCc1ccc(Br)cc1`: the values for the Activity in [7], in series [9] and in [10] were 52%, 130% and 70%, respectively. Moreover, in series [8], the EC50 was under 10 µM.
For `CC(C)n1nc(C(=O)O)cc1[C@H]1C[C@](O)(c2ccc(OCc3c(-c4c(Cl)cccc4Cl)noc3C3CC3)cc2Cl)C1`, the EC50 is under 0.025 µM at Bile acid receptor [11] and 0.01 µM at Bile acid receptor [5]. Besides, in series [12], the permeability worked out at 46.1%.
`CN(C(=O)c1c(-c2ccc(F)cc2)nc2ncccn12)c1ccc(Cl)cc1`: the Activity in series [13] is 7.9%; in [14] it was 39%; in series [15], 7%; in series [16], 43%; in [17], 80%; in series [18] it was 5.2%. Besides, the figures for the Activity in series [20], in [21] and in series [22] were 14%, 24% and 24%, respectively. The fold change (FC) in series [19] was 3.7.
In turn, `CN(C)c1cc(Cl)c(C(=O)N(Cc2ccccc2)c2ccc(O)c(C(C)(C)C)c2)c(Cl)c1` came in with an IC50 against Bile acid receptor [23] of 4.5 µM. This molecule also showed an equilibrium dissociation constant (Kd) in series [24] of 8.3 µM.
Regarding `CC(C)c1onc(-c2c(Cl)cccc2Cl)c1COc1ccc2c(ccn2Cc2ccc(-c3nnn[nH]3)cc2)c1`, the EC50 on Bile acid receptor [25] was under 0.1 µM.
Take `O=C(O)c1ccccc1-c1ccc(Cn2ccc(OCc3c(-c4ccccc4Cl)noc3-c3cccs3)n2)cc1`: the values for the IC50 against Bile acid receptor [26] and against Bile acid receptor [27] were 10 µM and 12.2 µM, respectively.
